Assays:
Benzold-Jarisch reflex = assay: Inhibition of Benzold-Jarisch reflex (bradycardic response to 2-methyl-5-hydroxytryptamine in anesthetized rats); format: in vivo, Male Sprague-Dawley rats; details: dose 3.2 μg/kg iv, given 5 minutes before 2-methyl-5-hydroxytryptamine (32 ug/kg, iv), urethane-anesthetized rats
From the text: (A) Inhibition of Benzold-Jarisch reflex
Male Sprague-Dawley rats weighing 260-350 g were anesthetized intraperitoneally with 1.25 g/kg urethane.
Blood pressure and heart rate were monitored continuously from the left common carotid artery with a pressure transducer. A right femoral vein was connulated for the intravenous injection (iv) of drugs. The trachea was also connulated to ease the respiration.
Rats were given a rapid bolus injection of 2-methyl-5-hydroxytryptamine (32 u.g/kg, iv) to establish the control bradycardic response. Once the heart rate returned to base line, the .rats were given the test compound (iv), followed by 5-minutes interval and another bolus injection of 2-methyl-5-hydroxytryptamine (32 ug/kg, iv).

[1] = tested on: Cisplatin-induced vomiting; assay: Inhibition of Cisplatin-induced vomiting; format: in vivo, female beagles; details: dose 100 μg/kg intravenously twice, 10 minutes prior to and 90 minutes after Cisplatin (3.2 mg/kg, iv); observed up to 5 hours
Method: (B) Inhibition of Cisplatin-induced vomiting
Nonfasted female beagles weighing about 10 kg were administered test compound or saline intravenously twice 10 minutes prior to and 90 minutes after Cisplatin dosing (3.2 mg/kg, iv).
Cisplatin was dissolved in 0.9% warm saline with a final concentration of 3 mgiml and used immediately.

SMILES: Cc1cn(C(=O)CC2CC3CCC(C2)N3C)c2ccccc12.Cl (centres unmarked) [Example 2, 3-methyl-1-[(8-methyl-8-azabicyclo[3.2.1]oct-3-yl)acetyl]indole hydrochloride]
- Inhibition (%) (Benzold-Jarisch reflex): 52.9%
- Inhibition (%) [1]: 95.2%

Reference: EP0403882A2, “Indole derivatives and processes for preparation thereof” (FUJISAWA PHARMACEUTICAL CO., LTD., priority 1989, dated 1990)
